Source: patent US7175850B2, “Formulation for topical non-invasive application in vivo” (Idea AG, priority 1998, dated 2007)

Experiments:
[1] = Biodistribution after epicutaneous application (blood, skin); type: in vivo, mice
Protocol: Drug in the Carrier (Transfersome) Suspensions. The formulations used in the biodistribution studies were labelled with the tritiurated corticosteroids purchased from Amersham or ICN. Preparation of the formulations for the use in animals was done by dissolving all lipoids in methanol/chloroform (1/1 v/v) in the appropriate amounts and preparing a dry mixed lipid film under vacuum (≦10 Pa;≧12 h). The use of potentially harmful organic solvents or drying was entirely avoided in the manufacturing of human medications.
In vivo Experiments mainly involved 8–12 weeks old NMRI mice which were kept under standard laboratory conditions (3–5 per suspending cage; standard chew and water ad libitum; 12 h light/dark regime). Stressful or painful manipulations were always carried out under general injection anesthesia.
Biodistribution. The hair at the chosen skin site was trimmed with a pair of scissors to the length of ≦2 mm one day before experimentation. The precise application site on the upper back was marked and the appropriate amount (0.5 μL to 25 μL) and drug formulation was applied with a micro-pipette on the skin. After uniform distribution with the side of the same pipette tip, the application was left to dry.
Blood samples (20 μL) were taken from the tail end with a glass capillary. After 8 hours the animals were killed by heart puncture and the treated skin area was undermined and carefully excised. The outermost layers of the stratum corneum were collected by five tape-strippings. Subsequently, the residual skin tissue and other organ samples were prepared, destained and used for radioactivity counting. For the experiments with porcine skin, […] of full thickness organ was excised and fixed on a wet tissue. Several test areas of 1 cm^2 were then marked and treated further as in vivo.

[2] = Ratio of corticosteroid concentration in blood and inner skin, calculated for humans
Protocol: The area dose will normally be between 0.1 μg cm^−2 and 1 μg cm^−2, for the high and low potency drugs, respectively.

Structure (SMILES) | Ratio of corticosteroid concentration in the blood and in the 'inner skin' (mouse) ([1]; dose 0.5 μg/cm^−2, measured) | Ratio of corticosteroid concentration in the blood and in the 'inner skin' (mouse) ([1]; dose 4.9 μg/cm^−2, measured) | Ratio of corticosteroid concentration in the blood and in the 'inner skin' (mouse) ([1]; dose 49.5 μg/cm^−2, measured) | Ratio of corticosteroid concentration in the blood and in the 'inner skin' (mouse) ([1]; dose 1.3 μg/cm^−2, measured) | Ratio of corticosteroid concentration in the blood and in the 'inner skin' (mouse) ([1]; dose 13.2 μg/cm^−2, measured) | Ratio of corticosteroid concentration in the blood and in the 'inner skin' (mouse) ([1]; dose 20.6 μg/cm^−2, measured) | Ratio of corticosteroid concentration in the blood and in the 'inner skin' (human) ([2]; dose 1.3 μg/cm^−2) | Ratio of corticosteroid concentration in the blood and in the 'inner skin' (human) ([2]; dose 13.2 μg/cm^−2) | Ratio of corticosteroid concentration in the blood and in the 'inner skin' (human) ([2]; dose 20.6 μg/cm^−2)
C[C@@H]1C[C@H]2[C@@H]3CCC4=CC(=O)C=C[C@]4(C)[C@@]3(F)[C@@H](O)C[C@]2(C)[C@@]1(O)C(=O)CO [Dexamethasone, dexamethasone] | 0 | 0.1 | 0.25 |  |  |  |  |  | 
C[C@]12CCC(=O)C=C1CC[C@@H]1[C@@H]2[C@@H](O)C[C@@]2(C)[C@H]1CC[C@]2(O)C(=O)CO [Hydrocortisone, hydrocortisone] | 0 | 0.012 | 0.015 |  |  |  |  |  | 
CC1(C)O[C@@H]2C[C@H]3[C@@H]4CCC5=CC(=O)C=C[C@]5(C)[C@@]4(F)[C@@H](O)C[C@]3(C)[C@]2(C(=O)CO)O1 [Triamcinolone-acetonide, triamcinolone-acetonide] |  |  |  | 0.02 | 0.04 | 0.03 | 0.00007 | 0.00011 | 0.0001
